Among the data in patent US11596639B2, “Substituted indole Mcl-1 inhibitors” (Vanderbilt University, priority 2016, dated 2023) are Ki and GI50 values, retold here.

For one test, the target named is Mcl-1 (Homo sapiens (Human), UniProt Q07820). Description: Fluorescence polarization anisotropy (FPA) competition assay, FITC-Bak or FITC-Bim BH3 peptide. The class given is binding. To be noted: read-out: Ki for Inhibition of Mcl-1 by FPA assay. (In general: In fluorescence polarisation assays a small probe gives low polarisation when free and higher when bound to something large.)
Chain of Mcl-1 (Q07820 172-327): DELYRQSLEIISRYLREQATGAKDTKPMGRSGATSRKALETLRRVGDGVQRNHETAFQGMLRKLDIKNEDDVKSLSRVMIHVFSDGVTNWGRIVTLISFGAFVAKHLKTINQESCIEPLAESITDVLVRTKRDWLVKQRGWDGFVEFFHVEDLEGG

In test [1] the test system is H929 human cancer cell lines. Description: Cellular viability / proliferation (Cell TiterGlo, 72 h). The class given is cell-based. The method, boiled down: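 Cells were seeded at 1,000 cells/well in medium with 10% FBS and dosed 24 h later with a 2-fold serial dilution of compound (top concentration 50 μM, final DMSO <1%).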
(Cellular ATP, detected with luciferase, serves as a proxy for viable cell number.)

Where [2] appears, read: Homo sapiens, NCI-H929, 72 h, read-out: GI50 on cellular proliferation of H929 human cancer cell lines, H929 cells, 72 h, Cell TiterGlo, 10% FBS.

Like-named read-outs stand apart in the source and are kept apart here.

Regarding `COCCn1c(C(=O)O)cc2cc(C(C)C)cc(N3C[C@@H](C)n4c(c(CCCOc5cc(C)c(Cl)c(C)c5)c5ccc(Cl)c(-c6c(C)nn(C)c6C)c54)C3=O)c21` [Example 364, (R)-7-(7-Chloro-10-(3-(4-chloro-3,5-dimethylphenoxy)propyl)-4-methyl-1-oxo-6-(1,3,5-trimethyl-1H-pyrazol-4-yl)-3,4-dihydropyrazino[1,2-a]indol-2(1H)-yl)-5-isopropyl-1-(2-methoxyethyl)-1H-indole-2-carboxylic acid], the Ki (commonly the equilibrium dissociation constant of an inhibitor or competing ligand from its target) at Mcl-1 is 1 nM. Moreover, the GI50 in test [1] (setting [2]) was determined as 540 nM.
`Cc1cc(OCCCc2c3n(c4c(-c5c(C)nn(C)c5C)c(Cl)ccc24)[C@H](C)CN(c2cccc4cc(C(=O)O)n(Cc5cccnc5)c24)C3=O)cc(C)c1Cl` [Example 245, 7-[(4R)-7-chloro-10-[3-(4-chloro-3,5-dimethyl-phenoxy)propyl]-4-methyl-1-oxo-6-(1,3,5-trimethylpyrazol-4-yl)-3,4-dihydropyrazino[1,2-a]indol-2-yl]-1-(3-pyridylmethyl)indole-2-carboxylic acid]: the Ki on Mcl-1 is less than 1 nM. Further, in test [1] (setting [2]), the GI50 was determined as 900 nM.
As for `Cc1cc(OCCCc2c3n(c4c(-c5c(C)nn(C)c5C)c(Cl)ccc24)[C@H](C)CN(c2cccc4cc(C(=O)O)n(CC5CCO5)c24)C3=O)cc(C)c1Cl` (stereo partly drawn) [Example 374, 7-((R)-7-Chloro-10-(3-(4-chloro-3,5-dimethylphenoxy)propyl)-4-methyl-1-oxo-6-(1,3,5-trimethyl-1H-pyrazol-4-yl)-3,4-dihydropyrazino[1,2-a]indol-2(1H)-yl)-1-(oxetan-2-ylmethyl)-1H-indole-2-carboxylic acid], the Ki at Mcl-1 was found to be 3.7 nM. Further, the GI50 in test [1] (setting [2]) was determined as 1500 nM.
Regarding `Cc1cc(OCCCc2c3n(c4c(-c5c(C)nn(C)c5C)c(Cl)ccc24)[C@H](C)CN(c2ccc4cc(C(=O)O)n(C)c4c2)C3=O)cc(C)c1Cl` [Example 110, (R)-6-(7-Chloro-10-(3-(4-chloro-3,5-dimethylphenoxy)propyl)-4-methyl-1-oxo-6-(1,3,5-trimethyl-1H-pyrazol-4-yl)-3,4-dihydropyrazino[1,2-a]indol-2(1H)-yl)-1-methyl-1H-indole-2-carboxylic acid], the inhibitory constant (Ki) on Mcl-1 is less than 1 nM. For the same compound, in test [1] (setting [2]), the GI50 is 790 nM.
As to `COc1ccnc(-c2ccc3c(c2)c(N2C[C@@H](C)n4c(c(CCCOc5cc(C)c(Cl)c(C)c5)c5ccc(Cl)c(-c6c(C)nn(C)c6C)c54)C2=O)cn3C)n1` [Example 464, (R)-7-Chloro-10-(3-(4-chloro-3,5-dimethylphenoxy)propyl)-2-(5-(4-methoxypyrimidin-2-yl)-1-methyl-1H-indol-3-yl)-4-methyl-6-(1,3,5-trimethyl-1H-pyrazol-4-yl)-3,4-dihydropyrazino[1,2-a]indol-1(2H)-one], the Ki at Mcl-1 came out at 3.5 nM. In addition, the GI50 in test [1] (setting [2]) worked out at 480 nM.
`Cc1cc(OCCCc2c3n(c4c(-c5c(C)nn(C)c5C)c(Cl)ccc24)[C@H](C)CN(c2cn(C)c4ccc(-c5ncn(CC6CC6)n5)cc24)C3=O)cc(C)c1Cl` [Example 462, (R)-7-Chloro-10-(3-(4-chloro-3,5-dimethylphenoxy)propyl)-2-(5-(1-(cyclopropylmethyl)-1H-1,2,4-triazol-3-yl)-1-methyl-1H-indol-3-yl)-4-methyl-6-(1,3,5-trimethyl-1H-pyrazol-4-yl)-3,4-dihydropyrazino[1,2-a]indol-1(2H)-one]: the Ki on Mcl-1 is 2 nM. In addition, the GI50 in test [1] (setting [2]) was determined as 990 nM.
For the compound `Cc1cc(OCCCc2c3n(c4c(-c5c(C)nn(C)c5C)c(Cl)ccc24)[C@H](C)CN(c2cccc4cc(C(N)=O)n(Cc5ccccn5)c24)C3=O)cc(C)c1Cl` [Example 385, (R)-7-(7-Chloro-10-(3-(4-chloro-3,5-dimethylphenoxy)propyl)-4-methyl-1-oxo-6-(1,3,5-trimethyl-1H-pyrazol-4-yl)-3,4-dihydropyrazino[1,2-a]indol-2(1H)-yl)-1-(pyridin-2-ylmethyl)-1H-indole-2-carboxamide], at Mcl-1, the Ki was found to be 4.1 nM. Besides, in test [1] (setting [2]), the GI50 stood at 510 nM.
For `COCCOc1cc(N2C[C@@H](C)n3c(c(CCCOc4cc(C)c(Cl)c(C)c4)c4ccc(Cl)c(-c5c(C)nn(C)c5C)c43)C2=O)c2cc(C(=O)O)n(C)c2c1` [Example 328, (M, R)-4-(7-Chloro-10-(3-(4-chloro-3,5-dimethylphenoxy)propyl)-4-methyl-1-oxo-6-(1,3,5-trimethyl-1H-pyrazol-4-yl)-3,4-dihydropyrazino[1,2-a]indol-2(1H)-yl)-6-(2-methoxyethoxy)-1-methyl-1H-indole-2-carboxylic acid], the Ki on Mcl-1 was less than 1 nM. Also, the GI50 in test [1] (H929 cells, 72 h, Cell TiterGlo, 10% FBS, read-out: GI50 on cellular proliferation of H929 human cancer cell lines) amounted to 690 nM.
Turning to `Cc1cc(OCCCc2c3n(c4c(-c5c(C)nn(C)c5C)c(Cl)ccc24)[C@H](C)CN(c2cc(C(C)C)cc4cc(C(=O)O)n(C)c24)C3=O)cc(C)c1Cl` [Example 356, (R)-7-(7-Chloro-10-(3-(4-chloro-3,5-dimethylphenoxy)propyl)-4-methyl-1-oxo-6-(1,3,5-trimethyl-1H-pyrazol-4-yl)-3,4-dihydropyrazino[1,2-a]indol-2(1H)-yl)-5-isopropyl-1-methyl-1H-indole-2-carboxylic acid], the Ki at Mcl-1 was determined as 1.9 nM. Besides, in test [1] (setting [2]), the GI50 is 650 nM.
Consider `CCCn1cc(N2C[C@@H](C)n3c(c(CCCOc4cc(C)c(Cl)c(C)c4)c4ccc(Cl)c(-c5c(C)nn(C)c5C)c43)C2=O)c2cc(C(=O)O)ccc21` [Example 158, (R)-3-(7-Chloro-10-(3-(4-chloro-3,5-dimethylphenoxy)propyl)-4-methyl-1-oxo-6-(1,3,5-trimethyl-1H-pyrazol-4-yl)-3,4-dihydropyrazino[1,2-a]indol-2(1H)-yl)-1-propyl-1H-indole-5-carboxylic acid], for which the Ki at Mcl-1 is less than 1 nM. Further, the GI50 in test [1] (setting [2]) came to 480 nM.
For the compound `Cc1cc(OCCCc2c3n(c4c(-c5c(C)n[nH]c5C)c(Cl)ccc24)[C@H](C)CN(c2cn(C)c4c(C)cc(C(=O)O)cc24)C3=O)cc(C)c1Cl` [Example 160, (R)-3-(7-chloro-10-(3-(4-chloro-3,5-dimethylphenoxy)propyl)-6-(3,5-dimethyl-1H-pyrazol-4-yl)-4-methyl-1-oxo-3,4-dihydropyrazino[1,2-a]indol-2(1H)-yl)-1,7-dimethyl-1H-indole-5-carboxylic acid], the Ki on Mcl-1 is 1.1 nM. Besides, the GI50 in test [1] (setting [2]) was determined as 690 nM.
With `Cc1cc(OCCCc2c3n(c4c(-c5c(C)nn(C)c5C)c(Cl)ccc24)[C@H](C)CN(c2cn(C)c4c(C)cc(C(=O)O)cc24)C3=O)cc(C)c1Cl` [Example 145, (R)-3-(7-chloro-10-(3-(4-chloro-3,5-dimethylphenoxy)propyl)-4-methyl-1-oxo-6-(1,3,5-trimethyl-1H-pyrazol-4-yl)-3,4-dihydropyrazino[1,2-a]indol-2(1H)-yl)-1,7-dimethyl-1H-indole-5-carboxylic acid], at Mcl-1, the Ki was less than 1 nM. Also, the GI50 in test [1] (setting [2]) was found to be 360 nM.
Take `Cc1cc(OCCCc2c3n(c4c(-c5c(C)nn(C)c5C)c(Cl)ccc24)CCCN(c2cccc4c(C(=O)O)nn(C)c24)C3=O)cc(C)c1Cl` [Example 13, 7-[8-Chloro-11-[3-(4-chloro-3,5-dimethyl-phenoxy)propyl]-1-oxo-7-(1,3,5-trimethylpyrazol-4-yl)-4,5-dihydro-3H-[1,4]diazepino[1,2-a]indol-2-yl]-1-methyl-indazole-3-carboxylic acid]: at Mcl-1, the Ki is less than 1 nM. Moreover, the GI50 in test [1] (setting [2]) stood at 4500 nM.
Turning to `Cc1cc(OCCCc2c3n(c4c(-c5c(C)nn(C)c5C)c(Cl)ccc24)CCCN(c2cn(CCN4CCOCC4)c4cc(C(=O)O)ccc24)C3=O)cc(C)c1Cl` [Example 89, 3-(8-Chloro-11-(3-(4-chloro-3,5-dimethylphenoxy)propyl)-1-oxo-7-(1,3,5-trimethyl-1H-pyrazol-4-yl)-4,5-dihydro-1H-[1,4]diazepino[1,2-a]indol-2(3H)-yl)-1-(2-morpholinoethyl)-1H-indole-6-carboxylic acid], the Ki on Mcl-1 was less than 1 nM. Further, the GI50 in test [1] (setting [2]) turned out to be 1300 nM.
Consider `COc1cccc(Cn2c(C(=O)O)cc3cccc(N4C[C@@H](C)n5c(c(CCCOc6cc(C)c(Cl)c(C)c6)c6ccc(Cl)c(-c7c(C)nn(C)c7C)c65)C4=O)c32)n1` [Example 360, (R)-7-(7-Chloro-10-(3-(4-chloro-3,5-dimethylphenoxy)propyl)-4-methyl-1-oxo-6-(1,3,5-trimethyl-1H-pyrazol-4-yl)-3,4-dihydropyrazino[1,2-a]indol-2(1H)-yl)-1-((6-methoxypyridin-2-yl)methyl)-1H-indole-2-carboxylic acid], for which, at Mcl-1, the Ki was 2.5 nM. Moreover, in test [1] (setting [2]), the GI50 came out at 2500 nM.
Take `Cc1cc(OCCCc2c3n(c4c(-c5c(C)nn(C)c5C)c(Cl)ccc24)[C@H](C)CN(c2cc(C(=O)O)c4ccn(CCN5CCOCC5)c4c2)C3=O)cc(C)c1Cl` [Example 94, (R)-6-(7-chloro-10-(3-(4-chloro-3,5-dimethylphenoxy)propyl)-4-methyl-1-oxo-6-(1,3,5-trimethyl-1H-pyrazol-4-yl)-3,4-dihydropyrazino[1,2-a]indol-2(1H)-yl)-1-(2-morpholinoethyl)-1H-indole-4-carboxylic acid]: at Mcl-1, the Ki was less than 1 nM. Moreover, the GI50 in test [1] (setting [2]) was determined as 1500 nM.
In the case of `Cc1cnc(-c2ccc3c(c2)c(N2C[C@@H](C)n4c(c(CCCOc5cc(C)c(Cl)c(C)c5)c5ccc(Cl)c(-c6c(C)nn(C)c6C)c54)C2=O)cn3C)nc1` [Example 450, (R)-7-Chloro-10-(3-(4-chloro-3,5-dimethylphenoxy)propyl)-4-methyl-2-(1-methyl-5-(5-methylpyrimidin-2-yl)-1H-indol-3-yl)-6-(1,3,5-trimethyl-1H-pyrazol-4-yl)-3,4-dihydropyrazino[1,2-a]indol-1(2H)-one], the Ki at Mcl-1 stood at 2.2 nM. Moreover, the GI50 in test [1] (setting [2]) came to 1100 nM.
